pIC50, pKi: −log10 of the molar value.
Assays:
Adenosine receptor A2a [1] = biological target: T1, Adenosine receptor A2a (Homo sapiens, UniProt P29274); assay: Displacement [3H]ZM241385 from adenosine A2A receptor in human HeLa cell membranes at 1 uM incubated for 30 mins by scintillation counting method relative to control
[2] = biological target: T2, Adenosine receptor A1 (Homo sapiens) (UniProt P30542); assay: Displacement [3H]DPCPX from human adenosine A1 receptor expressed in CHO cell membranes at 1 uM incubated for 60 mins by scintillation counting method relative to control
T2 sequence (whole entry): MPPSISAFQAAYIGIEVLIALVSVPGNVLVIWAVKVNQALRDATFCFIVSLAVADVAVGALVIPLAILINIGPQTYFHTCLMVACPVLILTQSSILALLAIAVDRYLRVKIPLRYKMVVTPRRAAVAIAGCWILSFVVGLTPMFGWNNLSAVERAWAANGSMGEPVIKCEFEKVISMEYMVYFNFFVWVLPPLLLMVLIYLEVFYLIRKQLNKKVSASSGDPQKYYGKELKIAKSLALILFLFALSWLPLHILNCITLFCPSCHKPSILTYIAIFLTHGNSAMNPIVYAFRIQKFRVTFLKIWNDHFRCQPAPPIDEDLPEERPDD

[3] = biological target: T3, Adenosine receptor A3 (Homo sapiens) (UniProt P0DMS8); assay: Displacement [3H]NECA from adenosine A3 receptor in human HeLa cell membranes at 1 uM incubated for 180 mins by scintillation counting method relative to control
T3 sequence (whole entry): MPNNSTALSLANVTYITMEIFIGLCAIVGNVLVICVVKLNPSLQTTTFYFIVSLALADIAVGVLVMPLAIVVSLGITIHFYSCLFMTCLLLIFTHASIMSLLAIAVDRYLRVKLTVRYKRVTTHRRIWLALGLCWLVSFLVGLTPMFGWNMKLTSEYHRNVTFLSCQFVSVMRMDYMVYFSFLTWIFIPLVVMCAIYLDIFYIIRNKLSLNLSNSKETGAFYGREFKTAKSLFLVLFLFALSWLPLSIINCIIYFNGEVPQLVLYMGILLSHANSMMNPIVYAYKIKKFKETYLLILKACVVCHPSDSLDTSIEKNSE

Adenosine receptor A2b = biological target: T4, Adenosine receptor A2b (Homo sapiens, UniProt P29275); assay: Displacement [3H]DPCPX from human adenosine A2B receptor expressed in HEK293 cell membranes incubated for 60 mins by scintillation counting method
T4 sequence (P29275 whole entry): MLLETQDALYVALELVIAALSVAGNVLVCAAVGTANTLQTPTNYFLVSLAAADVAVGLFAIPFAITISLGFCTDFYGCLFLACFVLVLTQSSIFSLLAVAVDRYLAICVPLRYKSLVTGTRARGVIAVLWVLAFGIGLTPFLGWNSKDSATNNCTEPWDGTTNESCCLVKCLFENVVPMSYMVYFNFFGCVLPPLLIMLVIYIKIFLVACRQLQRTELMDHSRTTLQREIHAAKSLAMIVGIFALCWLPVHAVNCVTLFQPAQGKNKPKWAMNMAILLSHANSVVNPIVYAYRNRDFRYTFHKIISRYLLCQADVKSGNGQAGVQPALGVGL

Adenosine receptor A2a [4] = biological target: T1, Adenosine receptor A2a; assay: Displacement [3H]ZM241385 from adenosine A2A receptor in human HeLa cell membranes incubated for 30 mins by scintillation counting method
CYP2D6 [5] = biological target: T5, CYP2D6 (Homo sapiens, UniProt P10635); assay: Inhibition of CYP2D6 (unknown origin) expressed in insect cell microsomes at 10 uM using dibenzylfluorescein substrate by fluorescence based assay relative to control; assay type: ADME; conditions: insect cell microsomes expressing CYP2D6, probe dibenzylfluorescein
Cytochrome P450 3A4 = Cytochrome P450 3A4 (Homo sapiens, UniProt P08684); assay: Inhibition of CYP3A4 (unknown origin) expressed in insect cell microsomes using dibenzylfluorescein substrate by fluorescence based assay; assay type: ADME
CYP2D6 [6] = biological target: T5, CYP2D6; assay: Inhibition of CYP2D6 (unknown origin) expressed in insect cell microsomes at 1 uM using dibenzylfluorescein substrate by fluorescence based assay relative to control; assay type: ADME; conditions: insect cell microsomes expressing CYP2D6, probe dibenzylfluorescein
Adenosine receptor A1 = biological target: T6, Adenosine receptor A1 (Homo sapiens, UniProt P30542); assay: Displacement [3H]DPCPX from human adenosine A1 receptor expressed in CHO cell membranes incubated for 60 mins by scintillation counting method
T6 sequence (P30542 whole entry): T2 sequence (whole entry)

Cytochrome P450 3A4, sequence (P08684 whole entry): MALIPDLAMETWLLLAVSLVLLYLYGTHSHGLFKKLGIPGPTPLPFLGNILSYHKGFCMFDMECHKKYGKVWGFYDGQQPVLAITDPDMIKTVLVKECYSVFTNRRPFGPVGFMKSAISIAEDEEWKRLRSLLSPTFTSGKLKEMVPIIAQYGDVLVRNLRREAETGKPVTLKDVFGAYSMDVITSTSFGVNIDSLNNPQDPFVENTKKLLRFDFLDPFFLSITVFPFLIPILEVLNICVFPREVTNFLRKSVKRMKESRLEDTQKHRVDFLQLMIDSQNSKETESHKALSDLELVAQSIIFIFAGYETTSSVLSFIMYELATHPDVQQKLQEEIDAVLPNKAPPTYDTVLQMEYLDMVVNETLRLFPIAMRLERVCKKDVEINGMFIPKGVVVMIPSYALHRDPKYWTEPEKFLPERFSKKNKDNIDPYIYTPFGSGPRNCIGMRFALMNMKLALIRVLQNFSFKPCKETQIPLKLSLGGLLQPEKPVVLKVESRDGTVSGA
T5 sequence (P10635 whole entry): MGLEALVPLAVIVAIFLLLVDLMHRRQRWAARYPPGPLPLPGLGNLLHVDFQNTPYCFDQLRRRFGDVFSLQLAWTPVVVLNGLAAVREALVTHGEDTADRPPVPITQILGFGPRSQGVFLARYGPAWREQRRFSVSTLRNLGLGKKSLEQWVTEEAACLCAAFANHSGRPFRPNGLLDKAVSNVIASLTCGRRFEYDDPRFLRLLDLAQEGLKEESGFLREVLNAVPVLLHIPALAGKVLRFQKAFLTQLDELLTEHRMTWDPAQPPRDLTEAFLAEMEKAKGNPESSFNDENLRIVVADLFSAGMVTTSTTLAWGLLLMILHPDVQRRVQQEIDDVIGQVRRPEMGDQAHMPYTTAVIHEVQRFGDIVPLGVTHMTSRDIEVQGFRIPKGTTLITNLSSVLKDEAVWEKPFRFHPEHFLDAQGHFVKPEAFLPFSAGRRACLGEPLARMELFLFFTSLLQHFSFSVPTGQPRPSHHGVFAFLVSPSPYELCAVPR
T1 sequence (P29274 whole entry): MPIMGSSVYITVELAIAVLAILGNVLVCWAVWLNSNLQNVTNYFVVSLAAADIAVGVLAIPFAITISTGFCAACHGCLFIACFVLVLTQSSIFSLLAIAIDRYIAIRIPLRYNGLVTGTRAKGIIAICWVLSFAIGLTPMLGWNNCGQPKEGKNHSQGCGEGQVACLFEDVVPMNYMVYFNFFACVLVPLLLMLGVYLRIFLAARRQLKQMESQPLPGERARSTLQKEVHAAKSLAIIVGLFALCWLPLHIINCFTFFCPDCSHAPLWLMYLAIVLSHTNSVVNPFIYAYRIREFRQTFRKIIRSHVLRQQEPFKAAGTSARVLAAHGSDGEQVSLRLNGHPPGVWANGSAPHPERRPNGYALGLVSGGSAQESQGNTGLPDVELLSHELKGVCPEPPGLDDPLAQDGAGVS

SMILES | inhibition (Adenosine receptor A2a [1]) [%] | inhibition [2] [%] | inhibition [3] [%] | pKi (Adenosine receptor A2b) | pKi (Adenosine receptor A2a [4]) | inhibition at 10 µM (CYP2D6 [5]) [%] | pIC50 (Cytochrome P450 3A4) | inhibition at 1 µM (CYP2D6 [6]) [%] | pKi (Adenosine receptor A1)
CC1=C(C(=O)OC(C)C)C(c2ccccc2)n2c(nc3ccccc32)N1 (racemic) | 3 | 9 | 9 |  |  |  |  |  | 
CCOC(=O)C1=C(C)Nc2nc3ccccc3n2C1 | 11 | 34 | 9 |  |  |  |  |  | 
CCOC(=O)C1=C(C)Nc2nc3ccccc3n2C1c1cncs1 (racemic) | 1 | 32 | 1 | 6.67 |  |  |  |  | 
CCOC(=O)C1=C(C)Nc2nc3ccccc3n2C1c1ccno1 (racemic) | 1 | 1 | 11 | 6.15 |  |  |  |  | 
CCOC(=O)C1=C(C)Nc2nc3ccccc3n2C1c1ncco1 (racemic) |  | 8 | 10 | 6.11 | 8.70 |  |  |  | 
CC1=C(C(=O)OC(C)C)C(c2cc[nH]c2)n2c(nc3ccccc32)N1 (racemic) | 1 | 19 | 2 | 6.29 |  |  |  |  | 
CC1=C(C(=O)OC(C)C)C(c2ccoc2)n2c(nc3ccccc32)N1 (racemic) | 22 |  |  |  |  | 31 | 5.57 | 8 | 
CCOC(=O)C1=C(C)Nc2nc3ccccc3n2C1c1nccs1 (racemic) |  | 3 | 1 | 6.41 | 8.52 |  |  |  | 
CC1=C(C(=O)OC(C)C)C(c2ncc[nH]2)n2c(nc3ccccc32)N1 (racemic) | 4 | 2 | 2 |  |  |  |  |  | 
CC1=C(C(=O)OC(C)C)C(c2cnoc2)n2c(nc3ccccc32)N1 (racemic) | 2 | 1 | 5 | 7.53 |  |  |  |  | 
CC1=C(C(=O)OC(C)C)C(c2cnsc2)n2c(nc3ccccc32)N1 (racemic) | 11 | 9 | 14 | 6.56 |  |  |  |  | 
CC1=C(C(=O)OC(C)C)C(c2ncco2)n2c(nc3ccccc32)N1 (racemic) |  | 1 | 10 | 6.15 | 9.00 |  |  |  | 
CC1=C(C(=O)OC(C)C)C(C2CCCC2)n2c(nc3ccccc32)N1 (racemic) | 2 | 14 | 23 |  |  |  |  |  | 
CC1=C(C(=O)OC(C)C)C(c2cscn2)n2c(nc3ccccc32)N1 (racemic) | 3 | 1 | 18 |  |  |  |  |  | 
CC1=C(C(=O)OC(C)C)C(c2ccon2)n2c(nc3ccccc32)N1 (racemic) | 2 | 1 | 4 | 6.14 |  |  |  |  | 
CC1=C(C(=O)OC(C)C)C(c2cncs2)n2c(nc3ccccc32)N1 (racemic) | 3 | 2 | 5 | 7.17 |  |  |  |  | 
CCOC(=O)C1=C(C)Nc2nc3ccccc3n2C1c1cn[nH]c1 (racemic) | 28 |  | 1 | 7.03 |  |  |  |  | 7.83
CCOC(=O)C1=C(C)Nc2nc3ccccc3n2C1c1cnoc1 (racemic) | 30 | 21 | 13 | 7.63 |  | 37 | 5.31 | 6 | 
CCOC(=O)C1=C(C)Nc2nc3ccccc3n2C1c1cscn1 (racemic) | 1 | 1 | 2 |  |  |  |  |  | 
CCOC(=O)C1=C(C)Nc2nc3ccccc3n2C1c1c[nH]cn1 (racemic) | 16 | 7 | 3 |  |  |  |  |  | 
CC1=C(C(=O)OC(C)C)C(c2ccc[nH]2)n2c(nc3ccccc32)N1 (racemic) | 19 | 38 | 1 | 7.50 |  |  |  |  | 

SMILES | inhibition (Adenosine receptor A2a [1]) [%] | inhibition [2] [%] | inhibition [3] [%] | pKi (Adenosine receptor A2b) | pKi (Adenosine receptor A2a [4]) | inhibition at 10 µM (CYP2D6 [5]) [%] | pIC50 (Cytochrome P450 3A4) | inhibition at 1 µM (CYP2D6 [6]) [%] | pKi (Adenosine receptor A1)
CCOC(=O)C1=C(C)Nc2nc3ccccc3n2C1c1cc[nH]n1 (racemic) | 11 | 8 | 1 | 6.15 |  |  |  |  | 
CC1=C(C(=O)OC(C)C)C(c2cocn2)n2c(nc3ccccc32)N1 (racemic) | 19 | 7 | 16 | 7.36 |  | 43 | 5.23 | 23 | 
CCOC(=O)C1=C(C)Nc2nc3ccccc3n2C1c1ncc[nH]1 (racemic) |  | 6 | 1 | 6.40 | 8.30 | 18 | 5.34 | 8 | 
CC1=C(C(=O)OC(C)C)C(c2ccns2)n2c(nc3ccccc32)N1 (racemic) | 18 | 24 | 4 | 6.76 |  |  |  |  | 
CCOC(=O)C1=C(C)Nc2nc3ccccc3n2C1c1ccc[nH]1 (racemic) | 2 | 45 | 9 | 7.30 |  |  |  |  | 
CC1=C(C(=O)OC(C)C)C(c2cc[nH]n2)n2c(nc3ccccc32)N1 (racemic) | 7 | 1 | 2 | 5.96 |  |  |  |  | 
CC1=C(C(=O)OC(C)C)C(c2c[nH]cn2)n2c(nc3ccccc32)N1 (racemic) | 4 | 5 | 8 |  |  |  |  |  | 
CC1=C(C(=O)OC(C)C)C(c2ccc(C)o2)n2c(nc3ccccc32)N1 (racemic) | 3 | 14 | 1 |  |  |  |  |  | 
CCOC(=O)C1=C(C)Nc2nc3ccccc3n2C1c1ccccc1 (racemic) | 9 | 12 | 15 |  |  |  |  |  | 
CC1=C(C(=O)OC(C)C)C(c2ccno2)n2c(nc3ccccc32)N1 (racemic) | 7 | 37 | 1 | 5.99 |  |  |  |  | 
CC1=C(C(=O)OC(C)C)C(c2nccs2)n2c(nc3ccccc32)N1 (racemic) | 4 | 5 | 20 | 6.12 |  |  |  |  | 
CC1=C(C(=O)OC(C)C)C(c2ccco2)n2c(nc3ccccc32)N1 (racemic) | 25 |  |  |  |  | 35 | 5.54 | 5 | 
CCOC(=O)C1=C(C)Nc2nc3ccccc3n2C1C1CCCC1 (racemic) | 10 | 11 | 17 |  |  |  |  |  | 
CC1=C(C(=O)OC(C)C)C(c2cn[nH]c2)n2c(nc3ccccc32)N1 (racemic) | 40 |  | 6 | 6.47 |  |  |  |  | 8.08
CC1=C(C(=O)OC(C)C)C(c2cnco2)n2c(nc3ccccc32)N1 (racemic) | 38 |  | 39 |  |  |  |  |  | 6.52
CCOC(=O)C1=C(C)Nc2nc3ccccc3n2C1c1cc[nH]c1 (racemic) | 7 | 26 | 1 | 6.35 |  |  |  |  | 
CCOC(=O)C1=C(C)Nc2nc3ccccc3n2C1c1ccon1 (racemic) | 1 | 2 | 3 | 6.10 |  |  |  |  | 
CCOC(=O)C1=C(C)Nc2nc3ccccc3n2C1c1ccc(C)o1 (racemic) | 1 | 14 | 3 |  |  |  |  |  | 
CCOC(=O)C1=C(C)Nc2nc3ccccc3n2C1c1ccns1 (racemic) | 7 |  | 8 | 7.01 |  |  |  |  | 7.69
CCOC(=O)C1=C(C)Nc2nc3ccccc3n2C1c1cnsc1 (racemic) | 11 | 20 | 14 |  |  |  |  |  | 
CC1=C(C(=O)OC(C)C)Cn2c(nc3ccccc32)N1 | 4 | 31 | 13 |  |  |  |  |  | 

Reference: ChEMBL document CHEMBL4616721, “Nitrogen-Walk Approach to Explore Bioisosteric Replacements in a Series of Potent A2B Adenosine Receptor Antagonists” (J Med Chem, 2020)
